{"source": "patent US7618984B2", "about": "“Sulfonamide compound” (Asahi Kasei Pharma Corporation, priority 2005, dated 2009)", "test_system": "rabbit intraocular pressure", "experiment": "Rabbit intraocular pressure reduction enhancing action, combination with timolol maleate (Test Example 6-2)", "format": "in vivo, Japanese white rabbit", "conditions": "0.01 weight % 19-1 compound aqueous solution and/or timolol maleate (Timoptol), 50 μL; difference relative to the control group, 1, 2 and 4 hours", "description": "As a test compound, the 19-1 compound was dissolved in physiological saline, and the solution was neutralized by addition of sodium hydroxide (pH 7.0 to 8.0) to prepare a 0.01 weight % aqueous solution (19-1 compound aqueous solution). As a drug for combination use, timolol maleate (trade name: Timoptol, Santen Pharmaceutical) was used as an adrenergic receptor β blocker, as the marketed formulation as it was.\nA Japanese white rabbit having a body weight of about 2 kg was placed in a positioner and naturalized for one week before the experiment. An opthalmologic local anesthesant (Benoxil) was administered to both eyes, and then intraocular pressure before instillation was measured by using a tonometer (Classic 30, Solan). […] The intraocular pressure thereafter was measured for each group 1, 2 and 4 hours after the second administration of the test compound, and the difference of the measured values at each measurement time for the each group and the control group was considered an intraocular pressure reduction value of each group. The largest difference of the intraocular pressure values relative to the control group among those of the measured values of the measurement times was considered the maximum intraocular pressure reduction value (max ΔIOP) of each drug group.", "note": "Counter-ions that a name gives are not always drawn."}
{"compound": "CC(C)(C)NC[C@H](O)COc1nsnc1N1CCOCC1", "note": "[timolol maleate, reference compound]", "values": [{"measurement": "Max ΔIOP (maximum intraocular pressure reduction value), Table 4", "result": 1.9, "unit": "mmHg"}]}
